US9738677B2, “Amphotericin B derivative with reduced toxicity” (priority 2014, dated 2017)
Entries after “also recorded” stand apart in the source; their conditions may differ.

Assays:
[1] = ITC titration with sterol-free POPC LUVs; type: binding; conditions: no sterol LUVs, 600 μM compound
Protocol: (§1) Isothermal Titration calorimetry (ITC)
(§2) In an optimized isothermal titration calorimetry (ITC)-based assay, an aqueous solution of AmB was titrated with a suspension of large unilamellar vesicles (LUVs) comprised of only 1-palmitoyl-2-oleoyl-sn-glycero-3-phosphocholine (POPC), and the net exotherm was recorded. The titration was repeated using POPC LUVs containing 10% ergosterol. […] The titration was repeated using C2′epiAmB. […] The ITC assay was also conducted with cholesterol in place of ergosterol.
Experiments were performed using a NanoITC isothermal titration calorimeter (TA Instruments, Wilmington, Del.). Solutions of the compounds to be tested were prepared by diluting a 60.0 mM stock solution of the compound in DMSO to 600 μM with K buffer (5.0 mM HEPES/KHEPES, pH=7.4). The final DMSO concentration in the solution was 1% v/v. Large unilamellar vesicles comprised of only 1-palmitoyl-2-oleoyl-sn-glycero-3-phosphocholine (POPC LUVs) were prepared and phosphorus and ergosterol content was quantified as described below. […]
NanoAnalyze software (TA Instruments) was used for baseline determination and integration of the injection heats, and Microsoft Excel was used for subtraction of dilution heats and the calculation of overall heat evolved. […] By this method, the overall heat evolved during the experiment was calculated using the following formula: […]

[2] = ITC sterol binding, POPC LUVs containing 10% ergosterol
Protocol: as §1, §2
Experiments were performed using a NanoITC isothermal titration calorimeter (TA Instruments, Wilmington, Del.). Solutions of the compounds to be tested were prepared by diluting a 60.0 mM stock solution of the compound in DMSO to 600 μM with K buffer (5.0 mM HEPES/KHEPES, pH=7.4). The final DMSO concentration in the solution was 1% v/v. Large unilamellar vesicles comprised of only 1-palmitoyl-2-oleoyl-sn-glycero-3-phosphocholine (POPC LUVs) were prepared and phosphorus and ergosterol content was quantified as described below. The LUV solutions were diluted with buffer and DMSO to give a final phospholipid concentration of 12.0 mM in a 1% DMSO/K buffer solution. Immediately prior to use, all solutions were incubated at 37° C. for 30 minutes and degassed under vacuum at 37° C. for 10 minutes. The reference cell of the instrument (volume=0.190 mL) was filled with a solution of 1% v/v DMSO/K buffer.
Palmitoyl oleoyl phosphatidylcholine (POPC) was obtained as a 20 mg/mL solution in CHCl3 from Avanti Polar Lipids (Alabaster, Ala.) and was stored at −20° C. under an atmosphere of dry argon and used within 1 month. […]
Ergosterol content was determined spectrophotometrically. […] The solutions were then analyzed by UV/Vis spectroscopy and the concentration of ergosterol in solution was determined by the extinction coefficient of 10400 L mol^−1 cm^−1 at the UVmax of 282 nm and was compared to the concentration of phosphorus to determine the percent sterol content. The extinction coefficient was determined independently in the above ternary solvent system. […]

For C[C@@H]1[C@H](O)[C@@H](C)/C=C/C=C/C=C/C=C/C=C/C=C/C=C/[C@H](O[C@@H]2O[C@H](C)[C@@H](O)[C@H](N)[C@H]2O)CC2O[C@](O)(C[C@@H](O)C[C@@H](O)[C@H](O)CC[C@@H](O)C[C@@H](O)CC(=O)O[C@H]1C)C[C@H](O)[C@H]2C(=O)O [C2′epiAmB], the Total exotherm [1] was -6.70 ± 0.11 µcal, the Total exotherm ([2]; 10% ergosterol LUVs, 600 μM compound) was -15.24 ± 1.66 µcal and the “Binding to ergosterol (in words)” value ([2]; net exotherm vs sterol-free LUVs) was “binds to ergosterol; also recorded: retained capacity for the epimeric derivative to bind ergosterol”.
